# System: M. tuberculosis H37Rv growth inhibition
# Experiment: Mycobacterium tuberculosis H37Rv growth inhibition, putative kinase inhibitor library, confirmatory dose response (AID 2842);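 note: bacteria incubated one week before Alamar blue readout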
row,SMILES,IC90 [mg/L]
1,COc1ccccc1-c1nc(C(N)=O)c2[nH]c(=O)n(-c3ccc(C(C)(C)C)cc3)c2n1,9.91
2,COc1cccc(NCCCn2c(C)cn3c4c(=O)[nH]c(=O)n(C)c4nc23)c1,46.2
3,COc1cccc(C(=O)Nc2nnc(C3=COCCO3)o2)c1,4.85
4,CCc1ccc(-c2nnc3c4cc5c(cc4n(Cc4ccc(OC)cc4)cc2-3)OCCO5)cc1,5.37
5,O=Nc1c(-c2ccccc2)cc2ccccn12,3.32
6,O=C(Nc1ccc(F)cc1)Nc1nc(C(=O)N2CCN(c3ccc(F)cc3)CC2)cs1,7.09
7,O=C(NCCSc1c(-c2ccccc2)[nH]c2ccccc12)c1cc2ccccc2oc1=O,2.71
8,O=C(Nc1nnc(-c2cccs2)o1)c1cc(-c2ccccc2)nc2ccccc12,0.53
9,Cc1ccc(C)c(-c2nnc(NC(=O)c3ccc(S(=O)(=O)N(C)C4CCCCC4)cc3)o2)c1,58.3
10,O=C(Cc1ccccc1)Nc1nnc(-c2ccc3c(c2)CCCC3)o1,55.8
11,Cc1ccc(C2CC(c3c(-c4ccccc4)c4cc(Cl)ccc4[nH]c3=O)=NO2)cc1 (configuration not stated),12.4
12,CCCCc1ccc(NCCn2c(C)c(C)n3c4c(=O)[nH]c(=O)n(C)c4nc23)cc1,12.6
13,Cc1ccccc1C(=O)N=Nc1c(O)[nH]c2ccc(Br)cc12,30.8
14,Fc1cccc2sc(Nc3nnc(-c4ccco4)o3)nc12,2.08
15,O=C(CCSc1ccccc1)Nc1nc(-c2ccccn2)cs1,21.8
16,CN(C)c1ccc(Nc2nncc(=O)[nH]2)cc1,8.05
17,Cc1c(C#N)c(N)nc(SCC(=O)c2cc3ccccc3oc2=O)c1C#N,0.42
18,CCOc1cccc2sc(NC(=O)c3ccc(Cl)cc3Cl)nc12,11.6
19,CC(C)Cn1c(N2CCN(Cc3ccc(Cl)c(Cl)c3)CC2)nc2c1c(=O)[nH]c(=O)n2C,1.43
20,O=C1NC(=S)NC(=O)C1=Cc1nc(-c2ccccc2Cl)n2ccccc12,10.8
21,Cc1ccccc1C(=O)Nc1nnc(-c2ccco2)o1,1.69
22,CCOC(=O)N1CCN(c2ncnc3c2cnn3-c2ccc(C)cc2)CC1,21.4
23,Cc1ccc(-c2nnc(NC(=O)C(C)C)o2)c(C)c1,8.43
24,CCOC(CNc1ncnc2c1cnn2-c1ccc(C)cc1)OCC,25.6
25,N#Cc1ccc(C(=O)Nc2nnc(-c3ccc(Cl)cc3)o2)cc1,56.7
26,COc1cccc(C(=O)Nc2nc(-c3cccs3)cs2)c1,19.5

row,SMILES,IC90 [mg/L]
1,CC1(C)COCN1S(=O)(=O)c1ccc(C(=O)Nc2nnc(-c3ccc(F)cc3)o2)cc1,23.3
2,O=c1[nH]c(CSc2ccccc2)nc2ccccc12,7.54
3,CCOc1ccc(-c2nnc3c4cc5c(cc4n(Cc4cccc(F)c4)cc2-3)OCO5)cc1,54.2
4,CCCCc1ccc2nc(Nc3nc4ccc(S(C)(=O)=O)cc4s3)sc2c1,31.8
5,Cc1ccc(-c2nnc(NC(=O)c3cc4ccccc4oc3=O)o2)c(C)c1,1.36
6,Cc1ccc(-c2nnc(NC(=O)CCOc3ccccc3)o2)c(C)c1,1.8
7,COc1cccc(-c2nnc(NC(=O)C(C)C)o2)c1,32.7
8,CCC(=O)Nc1nnc(-c2ccc(C)cc2C)o1,< 0.2
9,COc1ccc2nc(N=Nc3c(C)[nH]n(-c4ccccc4)c3=O)sc2c1,7.7
10,O=C(c1cccs1)N(CCCn1ccnc1)c1nc2c(F)cc(F)cc2s1,2.38
11,CC(C)(C)c1ccc(C(=O)Nc2nnc(-c3ccccn3)o2)cc1,8.06
12,O=C(c1ccc(NC2=C(Cl)C(=O)N(Cc3ccccc3)C2=O)cc1)N1CCCCCC1,11.2
13,Clc1cccc(Nc2ccc(NCc3ccccc3)nn2)c1,6.71
14,CCS(=O)(=O)c1ccc(C(=O)Nc2nnc(-c3ccc(Br)cc3)o2)cc1,24.6
15,Oc1ccc2ccccc2c1N=Nc1nn[nH]n1,< 0.2
16,COc1ccc2nc(Nc3nc4c(s3)CCCC4)sc2c1,20.7
17,COC(=O)c1c(NC(=O)c2ccccc2I)sc2c1CC(C)(C)NC2(C)C,13.2
18,O=C(Nc1nnc(-c2cc(Cl)ccc2Cl)o1)c1ccco1,27.5
19,COc1ccc(C(=O)N(CCCn2ccnc2)c2nc3c(C)ccc(C)c3s2)cc1OC,17
20,COc1ccc(OCC(=O)Nc2ccc(I)cc2C)cc1,3.2
21,CCCOc1ccc(S(=O)(=O)Nc2ccc3c(c2)CCC(=O)N3CC)cc1,13
22,CC(C)N1CCc2c(sc(NC(=O)c3ccc([N+](=O)[O-])s3)c2C(N)=O)C1,6.33
23,Cc1cccc2sc(NNC(=O)c3cc4ccccc4oc3=O)nc12,2.94
24,Cc1cccc2sc(NNC(=O)c3nc4ccccc4s3)nc12,3.36
25,N#Cc1ccc(C(=O)Nc2nnc(-c3cccnc3)o2)cc1,53.3
26,Cc1ccc(Cl)cc1N1CCN(CCn2c(C)c(C)n3c4c(=O)[nH]c(=O)n(C)c4nc23)CC1,49.7

# — PubChem BioAssay AID2842 (Southern Research Institute, 2010)
